{"source": "patent US10800810B2", "about": "“Active peptide for inhibiting AMPA receptor and preparation method and use thereof” (CHINA NATIONAL RESEARCH INSTITUTE OF FOOD AND FERMENTATION …, priority 2015, dated 2020)", "key": {"[1]": {"tested_on": "neurons of CA1 region of the hippocampus", "assay": "Whole-cell recording of EPSC and mEPSC in mouse hippocampal slices", "assay_type": "cell-based", "conditions": "for amplitudes of mEPSCs: P<0.03", "experimental": "Hippocampus is taken from a C57BL/6 mouse to do whole-cell recording. The mouse is deep narcotized with 20% urethane before being decollated, then its brain is rapidly removed and immersed in ice-cold ACSF, then the brain is trimmed, and fixed onto a vibration slicer (Leica VT1000A, Germany) to be cut into coronal slices of 350 microns. The slices are incubated with ACSF for at least 1 hour at room temperature before recording.\n(§1) The slices of the hippocampus are transferred to an underwater recording room (Warner instrument). In the recording room, the slices are continuously perfused with ACSF at a speed of 3 ml/min, and whole-cell records of neurons of CA1 region of the hippocampus are performed by those experimenters who are not distinguished between a control group and a treated group. The neurons are identified through morphological recognition using an infrared ray differential interference phase-contrast microscope (BX51W, Olympus, Japan). A borosilicate microtube of 1.5 mm (external diameter)×0.86 mm (internal diameter) is drawn via a flame Brown electrode drawing instrument (P-97, Sutter instrument) using a 4 stage drawing scheme, to form a recording electrode with a resistance between 6-9 megohms. The recording electrode for recording is filled with above-mentioned internal liquid, and a whole-cell recording is proceeded by using above-mentioned external liquid.\n(§2) Bipolar polytetrafluoroethylene insulated iridium is used to perform a voltage-clamp recording of excitatory postsynaptic currents (EPSCs), and platinum microelectrode (AM system) is induced at a frequency of 0.0167 Hz. Records are taken by a Multiclamp 700B amplifier, filtered at 10 kHz, sampled at 200 microseconds, and recorded to a personal computer by using pClamp10.2 software, and then analyzed by using Axon Digidata 1440A and pClamp10.2 (Molecular Devices).\nExperiments mentioned below are carried out respectively, and the results are represented by an average value±S.E.M. In addition to data analysis of cumulative probability by the means of K-S test, statistical analyses of biological data are all performed by using T-test. All the statistical analyses are done by using SPSS 13.0 software.\n(1) EPSCs of slices treated by EGAR are recorded, while EPSCs of slices without EGAR treatment is as contrast, and 10 μM of PTX is added into the external liquid to separate mEPSCs out."}, "AMPA receptor [2]": {"tested_on": "AMPA receptor", "assay": "AMPAR-mediated EPSC and mEPSC in mouse hippocampal slices", "assay_type": "cell-based", "experimental": "as §1, §2\n(§3) (2) after blocking components of NMDA receptor-mediated EPSCs by adding 50 μM of D-APV to ACSF and blocking AMPAR-mediated EPSCs by adding 10 μM of CNQX to ACSF, remaining EPSCs of both them are also recorded. 10 μM of PTX is added in external liquid to isolate mEPSCs. After 10 μM of CNQX and 20 μM of EGAR and also 50 μM of D-APV (an antagonist of NMDA receptor) and 20 μM of EGAR are added to ACSF, mEPSCs are also recorded. By adding 10 μM of CNQX or 50 μM of D-APV to ACSF, NMDAR-mediated or AMPAR-mediated mEPSCs are isolated.\n(3) With regard to a NMDAR-mediated current record, 100 μM of NMDA is added into the above-mentioned external liquid; and with regard to an AMPAR-mediated current record, 20 μM of AMPA is added into above-mentioned external liquid."}, "NMDA receptor [3]": {"tested_on": "NMDA receptor", "assay": "NMDAR-mediated EPSC and mEPSC in mouse hippocampal slices", "assay_type": "cell-based", "experimental": "as §1, §2\nas §3, with “isolated. […]” for “isolated.”"}, "AMPA receptor [4]": {"tested_on": "AMPA receptor", "assay": "Current induced by AMPA, patch clamp", "assay_type": "cell-based, mouse", "experimental": "as §1\n(§4) (4) With regard to records of currents induced by NMDA, 100 μM of NMDA is added into above-mentioned external liquid; with regard to records of currents induced by AMPA, 20 μM of AMPA is added into above-mentioned external liquid."}, "NMDA receptor [5]": {"tested_on": "NMDA receptor", "assay": "Current induced by NMDA, patch clamp", "assay_type": "cell-based, mouse", "conditions": "100 μM NMDA plus 20 μM EGAR, P>0.05, n=6", "experimental": "as §1, §4"}, "hippocampal neuron": {"tested_on": "hippocampal neuron", "assay": "Epilepsy-like discharge of a hippocampal neuron induced by low magnesium external liquid", "assay_type": "cell-based, mouse", "experimental": "as §1\n(5) In an experiment of nominal zero magnesium, magnesium ions are replaced by sodium ions with the same osmotic concentration."}, "CA1 neuron": {"tested_on": "CA1 neuron", "assay": "Effect on electrophysiological properties of a neuron", "assay_type": "cell-based, mouse", "experimental": "as §1"}, "[6]": {"tested_on": "PTZ-induced mouse epilepsy", "assay": "Model of PTZ-induced epilepsy seizure", "assay_type": "in vivo", "conditions": "for preclinical period of epilepsy seizure vs PBS treated group: 30 minutes before PTZ 55 mg/kg i.p.", "experimental": "In order to determine anticonvulsive effect of EGAR, the degree of epilepsy after EGAR treatment is evaluated for the model of PTZ-induced epilepsy seizure. EGAR is injected into animals earlier 30 minutes than PTZ. The animals are randomly divided into 4 groups, and each group has 10 animals. 4 groups are given EGAR at 0, 1, 10 and 100 mg/kg respectively. All animals are intraperitoneally injected with PTZ at a dose of 55 mg/kg, and this dose can produce clonic seizures in all control animals.\nBehaviors of mice are observed for 30 minutes immediately after PTZ injection. […] Mice are placed in a transparent plastic cage, and are observed for 30 minutes. The cage is thoroughly cleaned by using wet/dry cloth and any olfactory clue is removed with 70% ethanol. Animals that show rampage and forelimb clonus or more serious behavior (rampage, clonus and fall down) are considered to be epilepsy in mouse brain edge. Epilepsy seizure is scored according to the following criteria: 0, no response; 1, immobile; 2, taste movement and grasping; 3, tremor; 4, head shaking; 5, rampage and forelimb clonus; 6, rampage, clonus and fall down; 7, death."}, "[7]": {"conditions": "background; cited from earlier work"}, "[8]": {"tested_on": "pentylenetetrazole (PTZ) model", "conditions": "background; cited from earlier work"}, "[9]": {"conditions": "behavioral experiment, overall conclusion"}}, "data": [{"molecule": "EGAR: tetrapeptide with an amino-acid sequence of SEQ ID No.17, contained in the salmon skin active peptide; synthetic EGAR used in tests (Salmo salar)", "values": [{"measurement": "amplitudes of mEPSCs", "setting": "[1]; 20 μM EGAR", "result": "reduce"}, {"measurement": "amplitudes of mEPSCs", "setting": "[1]; 50 μM EGAR", "result": "reduce"}, {"measurement": "amplitudes of mEPSCs", "setting": "[1]; 100 μM EGAR", "result": "reduce"}, {"measurement": "cumulative probabilities of mEPSC event intervals vs control group", "setting": "[1]; EGAR treated groups at concentrations", "result": "no difference"}, {"measurement": "cumulative probabilities of mEPSC amplitudes vs control group", "setting": "[1]; EGAR treated groups at concentrations, K-S test p<0.05", "result": "reduced"}, {"measurement": "mEPSC frequencies vs control group", "setting": "[1]; slices treated with EGAR, 10 μM PTX", "result": "no change"}, {"measurement": "amplitude of AMPAR-mediated EPSC vs control group", "setting": "AMPA receptor [2]; 50 μM D-APV and 20 μM EGAR, P<0.01, n=6", "result": "significantly lower"}, {"measurement": "cumulative probabilities of AMPAR-mediated mEPSCs amplitudes vs control group", "setting": "AMPA receptor [2]; K-S test, p<0.05, n=6", "result": "reduces"}, {"measurement": "cumulative probabilities of AMPAR-mediated mEPSC event intervals vs control group", "setting": "AMPA receptor [2]; K-S test, p>0.05, n=6", "result": "no difference in frequency"}, {"measurement": "amplitude of AMPAR-mediated mEPSCs vs control group", "setting": "AMPA receptor [2]; neurons treated by EGAR, P<0.05, t test, n=6", "result": "decline"}, {"measurement": "frequencies of AMPAR-mediated mEPSCs vs control group", "setting": "AMPA receptor [2]; neurons treated with EGAR, P>0.05, t test", "result": "do not change"}, {"measurement": "amplitude of NMDAR-mediated EPSC vs control group", "setting": "NMDA receptor [3]; 10 μM CNQX then 20 μM EGAR, P>0.05, n=6", "result": "not changed"}, {"measurement": "frequencies of NMDAR-mediated mEPSCs", "setting": "NMDA receptor [3]; 100 μM NMDA plus 20 μM EGAR, P>0.05", "result": "no significant difference"}, {"measurement": "amplitudes of NMDAR-mediated mEPSCs", "setting": "NMDA receptor [3]; 100 μM NMDA plus 20 μM EGAR, P>0.05, n=6", "result": "no significant difference"}, {"measurement": "peak current of AMPA, difference between groups", "setting": "AMPA receptor [4]; 20 μM AMPA plus 20 μM EGAR, P<0.01, n=6", "result": "significant difference"}, {"measurement": "inward current induced by AMPA", "setting": "AMPA receptor [4]; 20 μM AMPA, 20 μM EGAR, voltage-clamped at -70 mV", "result": "reduced"}, {"measurement": "peak current of NMDA, difference between groups", "setting": "NMDA receptor [5]", "result": "no significant difference"}, {"measurement": "frequency of a peak current caused by low magnesium, difference between groups", "setting": "hippocampal neuron; 20 μM EGAR, P<0.05, n=6", "result": "significant difference"}, {"measurement": "epilepsy-like discharge of a hippocampal neuron induced by low magnesium external liquid", "setting": "hippocampal neuron; overall conclusion", "result": "can inhibit"}, {"measurement": "Action potential half width", "setting": "CA1 neuron; 20 uM of EGAR treated group", "result": "0.99 ± 0.01", "unit": "ms"}, {"measurement": "Amplitude", "setting": "CA1 neuron; 20 uM of EGAR treated group", "result": "87.61 ± 1.18", "unit": "mV"}, {"measurement": "Frequency", "setting": "CA1 neuron; 20 uM of EGAR treated group", "result": "13.53 ± 2.42", "unit": "Hz"}, {"measurement": "Input resistance", "setting": "CA1 neuron; 20 uM of EGAR treated group", "result": "164.57 ± 9.96", "unit": "MΩ"}, {"measurement": "Membrane capacitance", "setting": "CA1 neuron; 20 uM of EGAR treated group", "result": "19.07 ± 0.67", "unit": "pF"}, {"measurement": "Resting potential", "setting": "CA1 neuron; 20 uM of EGAR treated group", "result": "−65.57 ± 1.23", "unit": "mV"}, {"measurement": "Threshold potential", "setting": "CA1 neuron; 20 uM of EGAR treated group", "result": "−45.61 ± 0.2", "unit": "mV"}, {"measurement": "effect on electrophysiological parameters of a CA1 neuron", "setting": "CA1 neuron; overall conclusion of Table 2", "result": "no significant effect"}, {"measurement": "preclinical period of epilepsy seizure vs PBS treated group", "setting": "[6]; 1 mg/kg EGAR", "result": "significant difference"}, {"measurement": "preclinical period of epilepsy seizure vs PBS treated group", "setting": "[6]; 10 mg/kg EGAR", "result": "significant difference"}, {"measurement": "preclinical period of epilepsy seizure vs PBS treated group", "setting": "[6]; 100 mg/kg EGAR", "result": "significant difference"}, {"measurement": "preclinical period of epilepsy seizure", "setting": "[6]; [9]", "result": "extend the preclinical period"}, {"measurement": "tic symptom of PTZ-induced mouse epilepsy", "setting": "[6]; [9]", "result": "mitigate tic symptom"}]}, {"molecule": "NS(=O)(=O)c1cccc2c1c([N+](=O)[O-])cc1nc(O)c(O)nc12", "note": "[NBQX, 2,3-dihydroxy-6-nitro-7-sulfamoyl benzo [f] quinoxaline]", "values": [{"measurement": "solubility", "setting": "[7]", "result": "low solubility"}, {"measurement": "effect in pentylenetetrazole (PTZ) model", "setting": "[8]", "result": "can play a role"}]}]}
